Data reported in patent publication US20130324542A1, “[1,2,4]TRIAZOLO[4,3-B][1,2,4]TRIAZINE COMPOUNDS, PREPARATION METHOD AND USE THEREOF” (SHANGHAI INSTITUTE OF MATERIA MEDICA, CHINESE ACADEMY OF …, priority 2010, published 2013).

Key:
[1] = Body weight and death of nude mice bearing U-87MG (toxicity and side effect)
Procedure: LI-87MG Cells were inoculated subcutaneously in right axillary fossa of nude mice with 5×10^6 cells per mouse. After the xenografted tumor was formed, it was passed three generations in nude mice and then used. Tumor tissue in productive phase was cut into nubs of about 1.5 mm^3 and inoculated subcutaneously in right axillary fossa of the nude mice in a sterile condition. The diameters of the xenografted tumors were measured by a vernier caliper. […] The administration was performed once daily and lasted for 17 days. At the same time, the negative group was administered with equivalent physiological saline.
wherein, CVt was tumor volume in control group measured at a given time point, CV0 was tumor volume in control group measured before grouping and treatment, TVt was tumor volume in treatment group measured at a given time point, and TV0 was tumor volume in treatment group measured before grouping and treatment. The significant differences between the treated and control groups were evaluated using t-test. At the same time, body weight of nude mice in each group was measured twice a week to preliminarily evaluate the toxicity and side effect of compound.

[2] = test system: Human Glioblastoma Cells U-87MG Xenograft; assay: Tumor growth in human glioblastoma U-87MG xenograft model of nude mice; assay type: in vivo; conditions: for tumor growth inhibition (TGI): 17 days, end of treatment
Procedure: The treatment group was administered intraperitoneally and daily with compound I-19 at various concentrations (50 mg/kg, 100 mg/kg) respectively.
The length (A) and width (B) of the tumor in mice were measured twice a week and tumor volume was calculated thereby as: V=A×B^2/2. Provided that Vt was the tumor volume measured at a given time point and V0 was the tumor volume measured before the mice were grouped and administered, tumor growth inhibition (TGI) was calculated as: […]

NIH3T3/TPR-Met cells = assay: Cell proliferation mediated by c-Met, SRB assay, NIH3T3/TPR-Met cells; assay type: cell-based; conditions: Mus musculus, NIH3T3, 72 h, read-out: inhibition rate (%) on proliferation of NIH3T3/TPR-Met cells
Procedure: Three concentrations were set, and for each concentration, the test was carried out in triplicate wells. 72 h later, the culture medium was removed. The residue was fixed by precooled 10% TCA at 4° C. for 1 h, washed by distilled water for 5 times and dried at room temperature. […] The excess dye was removed by washed with 1% glacial acetic acid for 5 times and dried in air. At last, 150 μL of Tris-HCL solution (10 mM Tris, pH 10.0) was added to each well.

NIH3T3 background cells = assay: Cell proliferation, SRB assay, NIH3T3 background cells as control; assay type: cell-based; conditions: Mus musculus, NIH3T3, 72 h, read-out: inhibition rate (%) on proliferation of NIH3T3 background cells
Procedure: NIH3T3/TPR-Met cells in the logarithmic growth phase and NIH3T3 background cells were seeded in a 96-well microcuture plate at 90111_, per well and cultivated overnight, followed by addition of 104 of the compound at different concentrations. Three concentrations were set, and for each concentration, the test was carried out in triplicate wells. 72 h later, the culture medium was removed. The residue was fixed by precooled 10% TCA at 4° C. for 1 h, washed by distilled water for 5 times and dried at room temperature. After that, 4 mg/mL of sulforodamine B (SRB) in 1% glacial acetic acid was added to each well (1004 per well) for staining at room temperature for 15 min. The excess dye was removed by washed with 1% glacial acetic acid for 5 times and dried in air. At last, 150 μL of Tris-HCL solution (10 mM Tris, pH 10.0) was added to each well. OD values were measured on a multi-well spectrophotometer at […].

c-Met tyrosine kinase = c-Met tyrosine kinase (Homo sapiens, UniProt P08581); assay: c-Met kinase activity on molecular level (ELISA, Poly(Glu,Tyr)4:1 substrate); assay type: biochemical; conditions: ATP 5 μM, 37° C., 1 h
Sequence of c-Met tyrosine kinase (P08581 25-1390): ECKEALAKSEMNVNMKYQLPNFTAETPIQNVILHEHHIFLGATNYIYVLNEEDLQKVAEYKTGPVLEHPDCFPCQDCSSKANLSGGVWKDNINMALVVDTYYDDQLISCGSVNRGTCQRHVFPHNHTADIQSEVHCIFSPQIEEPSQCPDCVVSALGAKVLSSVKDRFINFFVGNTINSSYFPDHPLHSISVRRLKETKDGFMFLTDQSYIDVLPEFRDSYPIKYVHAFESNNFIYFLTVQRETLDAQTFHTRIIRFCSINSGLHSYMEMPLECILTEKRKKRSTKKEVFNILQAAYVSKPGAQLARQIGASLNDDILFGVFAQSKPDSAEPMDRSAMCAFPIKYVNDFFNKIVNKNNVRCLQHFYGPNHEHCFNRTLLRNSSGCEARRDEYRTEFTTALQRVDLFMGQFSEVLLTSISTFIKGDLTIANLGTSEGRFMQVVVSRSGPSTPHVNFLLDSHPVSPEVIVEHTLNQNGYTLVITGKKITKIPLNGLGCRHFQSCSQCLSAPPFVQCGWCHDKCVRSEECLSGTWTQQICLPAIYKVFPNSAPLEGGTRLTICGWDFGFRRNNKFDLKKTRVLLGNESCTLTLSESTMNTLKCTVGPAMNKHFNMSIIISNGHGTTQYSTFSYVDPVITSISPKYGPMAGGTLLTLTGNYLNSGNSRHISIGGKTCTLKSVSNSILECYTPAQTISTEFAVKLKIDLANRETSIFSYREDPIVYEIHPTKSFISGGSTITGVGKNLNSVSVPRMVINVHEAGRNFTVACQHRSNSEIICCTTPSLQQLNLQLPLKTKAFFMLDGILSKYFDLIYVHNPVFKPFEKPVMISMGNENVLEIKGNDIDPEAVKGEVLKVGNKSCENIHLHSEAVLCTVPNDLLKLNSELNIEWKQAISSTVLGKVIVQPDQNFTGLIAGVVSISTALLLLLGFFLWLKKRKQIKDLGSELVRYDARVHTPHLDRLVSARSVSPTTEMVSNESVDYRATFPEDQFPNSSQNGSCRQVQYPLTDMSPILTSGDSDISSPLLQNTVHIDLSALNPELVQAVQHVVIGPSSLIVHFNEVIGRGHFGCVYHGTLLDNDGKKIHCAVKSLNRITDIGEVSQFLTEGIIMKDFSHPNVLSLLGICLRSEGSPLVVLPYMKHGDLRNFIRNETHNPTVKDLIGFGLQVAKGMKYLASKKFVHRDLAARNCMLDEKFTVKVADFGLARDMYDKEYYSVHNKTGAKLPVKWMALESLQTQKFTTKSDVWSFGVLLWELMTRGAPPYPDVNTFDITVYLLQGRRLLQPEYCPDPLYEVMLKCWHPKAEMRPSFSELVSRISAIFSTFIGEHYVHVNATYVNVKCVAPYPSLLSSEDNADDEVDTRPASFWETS
Procedure: Poly(Glu, Tyr)4:1 as an enzyme substrate was diluted by potassium ion-free PBS (10 mM, sodium phosphate buffer, 150 mM NaCl, pH7.2-7.4) into a solution of 20 μg/ml. […] After the liquid in wells was removed, the plate was washed three time by T-PBS (PBS solution containing 0.1% Tween-20) at 200 μl/well, 5 min for each time. The ELISA plate was then dried in an oven at 37° C. for 1-2 h.
Each well was added with 50 μL of ATP solution diluted by reaction buffer (50 mM HEPES pH 7.4, 50 mM MgCl2, 0.5 mM MnCl2, 0.2 mM Na3VO4, 1 mM DTT) at a final concentration of 5 μM. Compound diluted by 1% DMSO into a suitable concentration was added at 10 μl/well and then c-Met tyrosine kinase protein diluted by 40 μl of reaction buffer was added. The plate was placed on a shaking table (100 rpm) at 37° C. and incubated for 1 h, and then washed three times by T-PBS. For each assay, triplicate wells without enzyme were used as blank control and wells having the corresponding DMSO concentration without compound were used as negative control. Primary antibody PY99 (p-Tyr (PY99), Cell Signaling Technology, 1:1000 diluted in 5 mg/mL BSA T-PBS) was added at 100 μl/well. The plate was then placed on a shaking table at 37° C. and incubated for 0.5 h, and washed by T-PBS. Secondary antibody horseradish peroxidase-conjugated goat anti-mouse IgG (1:2000 diluted in 5 mg/mL BSA T-PBS) was added at 100 μl/well. The plate was then placed on a shaking table at 37° C. for 0.5 h and washed three times by T-PBS. 2 mg/mL of OPD developer (diluted by a 0.1M citric acid-sodium citrate buffer (pH=5.4) containing 0.03% of H2O2) was added at 100 μl/well, and the plate was kept in dark at 25° C. for 1-10 min. OPD was ultrasonically dissolved and the developer solution was prepared just before use. 2 M of H2SO4 was added at 50 μl/well to stop the reaction. The plate was read using a wavelength regulated multi-well spectrophotometer (SPECTRA MAX 190) at 490 nm.
The inhibition rate was calculated according to the following equation:
Inhibition rate (%)=(1−(ODcompound−ODblank)/(ODnegative−ODblank))×100%
IC50 value was calculated through a four-parameter fit according to the inhibition curve.

[3] = 100 mg/kg intraperitoneally once daily

SMILES	IC50 (c-Met tyrosine kinase) [nM]	death of mice [1, 3]	weight loss of nude mice ([1]; 50 and 100 mg/kg intraperitoneally once daily, 17 days)	tumor growth inhibition (TGI) ([2]; 50 mg/kg intraperitoneally once daily) [%]	tumor growth inhibition (TGI) [2, 3] [%]	inhibitory action on the growth of transplanted tumor ([2]; at each administration dose (50, 100 mg/kg i.p. daily))	inhibition at 1 µM (NIH3T3/TPR-Met cells) [%]	inhibition at 10 µM (NIH3T3/TPR-Met cells) [%]	inhibition at 50 µM (NIH3T3/TPR-Met cells) [%]	inhibition at 1 µM (NIH3T3 background cells) [%]	inhibition at 10 µM (NIH3T3 background cells) [%]	inhibition at 50 µM (NIH3T3 background cells) [%]
Cn1cc(-c2cnc3nnc(C(F)(F)c4ccc5ncccc5c4)n3n2)cn1 [Compound I-19, 3-[(6-quinolyl)difluoromethyl]-6-[(1-methyl)-4-pyrazolyl]-[1,2,4]triazolo[4,3-b][1,2,4]triazine]		one mouse died on the 9th day	No mouse in I-19 or JNJ-38877605 treated group show obvious weight loss	83.9	95.3	significantly inhibitory action						
COc1ccc2c(OCc3nnc4ncc(-c5ccc(Cl)c(Cl)c5)nn34)ccnc2c1 [II-20, 3-[(7-methoxy-4-quinolyl)oxymethyl]-6-(3,4-dichlorophenyl)-[1,2,4]triazolo[4,3-b][1,2,4] triazine]	0.7						78.7	89.4	86.7	10.4	22.5	21.4
FC(F)(c1ccc2ncccc2c1)c1nnc2ncc(-c3cnn(C4CCNCC4)c3)nn12 [Compound I-21, 3-[(6-quinolyl)difluoromethyl]-6-[1-(4-piperidyl)-4-pyrazolyl]-[1,2,4]triazolo[4,3-b][1,2,4] triazine]	81.6						6	76.8	85.1	12	25.5	28.4
Oc1ccc(-c2cnc3nnc(COc4ccnc5ccccc45)n3n2)cc1 [II-24, 3-(4-quinolyloxymethyl)-6-(4-hydroxyphenyl)-[1,2,4]triazolo[4,3-b][1,2,4]triazine]	0.78						5.3	53.1	70.6	17.1	25.1	28.4
CC(C)(C)OC(=O)N1CCC(n2cc(-c3cnc4nnc(C(F)(F)c5ccc6ncccc6c5)n4n3)cn2)CC1 [Compound I-20, 3-[(6-quinolyl)difluoromethyl]-6-[1-(1-tert-butoxycarbonyl-4-piperidyl)-4-pyrazolyl]-[1,2,4] triazolo[4,3-b][1,2,4]triazine]	7.9						81.2	87.8	86.5	18.8	25.8	38.6
c1ccc(-c2cnc3nnc(COc4ccnc5ccccc45)n3n2)cc1 [II-22, 3-(4-quinolyloxymethyl)-6-phenyl-[1,2,4] triazolo[4,3-b][1,2,4]triazine]	0.7						63.9	81.7	78.8	38.6	53.8	48.1
Fc1ccc(-c2cnc3nnc(COc4ccnc5ccccc45)n3n2)cc1 [II-21, 3-(4-quinolyloymethyl)-6-(4-fluorophenyl)-[1,2,4]triazolo[4,3-b][1,2,4]triazine]	0.81						24.6	81.4	84.3	28.9	53.9	57.5

Now from value to compound, other results behind:

IC50 (c-Met tyrosine kinase) [nM]	SMILES	death of mice [1, 3]	weight loss of nude mice ([1]; 50 and 100 mg/kg intraperitoneally once daily, 17 days)	tumor growth inhibition (TGI) ([2]; 50 mg/kg intraperitoneally once daily) [%]	tumor growth inhibition (TGI) [2, 3] [%]	inhibitory action on the growth of transplanted tumor ([2]; at each administration dose (50, 100 mg/kg i.p. daily))	inhibition at 1 µM (NIH3T3/TPR-Met cells) [%]	inhibition at 10 µM (NIH3T3/TPR-Met cells) [%]	inhibition at 50 µM (NIH3T3/TPR-Met cells) [%]	inhibition at 1 µM (NIH3T3 background cells) [%]	inhibition at 10 µM (NIH3T3 background cells) [%]	inhibition at 50 µM (NIH3T3 background cells) [%]
0.37	COc1ccc2c(OCc3nnc4ncc(-c5ccc(Cl)cc5)nn34)ccnc2c1 [II-2, 3-[(7-methoxy-4-quinolyl)oxymethyl]-6-(4-chlorophenyl)-[1,2,4]triazolo[4,3-b][1,2,4]triazine]							79			21	
3.7	COC(=O)c1ccc(-c2cnc3nnc(COc4ccnc5cc(OC)c(OC)cc45)n3n2)cc1 [II-18, 3-[(6,7-dimethoxy-4-quinolyl)oxymethyl]-6-(4-methoxyformylphenyl)-[1,2,4]triazolo[4,3-b] [1,2,4]triazine]						5.6	22.9	82.6	29.6	37.3	63.5
7.9	Cc1[nH]c(/C=C2\C(=O)Nc3ccc(S(=O)(=O)N(C)c4cccc(Cl)c4)cc32)c(C)c1C(=O)N1CCN(C)CC1 [SU11274, reference compound]						8.5	80.1	88.7	19.9	44.2	70.6
20.1	COc1ccc2c(OCc3nnc4ncc(-c5cccs5)nn34)ccnc2c1 [II-4, 3-[(7-methoxy-4-quinolyl)oxymethyl]-6-(2-thienyl)-[1,2,4]triazolo[4,3-b][1,2,4]triazine]							80.6			0	
